≈ marks a conversion by molar mass, not a printed value. Where two headings read alike, the source gives them in different places. Ends that are not written are not given here. Peptide text beside a SMILES is read from it.

One assay relates to M. furfur ATCC 14521. The following applies: 5 μM peptide, after 15 min of treatment, 10^6 cells/ml, ATCC medium 1072, 30° C. On the procedure:
FIG. 1. Killing kinetics of PF-S028 L and D versions against M. furfur were determined using standard time-kill methods previously detailed (Eckert et al. (2006) Antimicrob Agents Chemother., 50: 1480-1488). Briefly, a log phase culture of M. furfur ATCC 14521 was diluted to 10^6 cells/ml in ATCC medium 1072. To the reaction tubes 5 μM of either PF-S028 L or PF-S028 D were added. A reaction tube to which 4 μl of 50% methanol served as the negative control. Reaction tubes were stored at 30° C. and at indicated intervals an aliquot was removed from the reaction tube and placed in a recovery tube where peptide was removed by dilution. An aliquot from the recovery tube was plated on ATCC medium 1072 agar plates and incubated at 30° C. until visible colonies formed. Colony forming units were calculated for the negative control (no peptide), PF-S028 L, and PF-S028 D treated cultures.
In some cases killing kinetic experiments were then conducted. Killing kinetics of PF-S028 L and D versions against M. furfur were determined as described in Eckert et al. (2006) Antimicrob Agents Chemother., 50: 1480-1488. Briefly, a log phase culture of M. furfur ATCC 14521 was diluted to 10^6 cells/ml in ATCC medium 1072. To the reaction tubes 5 μM of either PF-S028 L or PF-S028 D were added. […] Colony forming units were calculated for the negative control (no peptide), PF-S028 L, and PF-S028 D treated cultures.

The test system of another assay is S. epidermidis. In kind it is cell-based. Here is the method: (§1) In certain embodiments the MIC assays are performed as described herein in the Examples. For each organism, the media and growth conditions utilized is detailed in Table 8.
(§2) In certain embodiments the MIC assays are performed as follows: For each organism, the media and growth conditions utilized is detailed in Table 8.

For another assay, the system named is E. coli. The assay is classed as cell-based, Escherichia coli. Here is the method: as §1, §2
Another assay relates to S. pneumoniae. The assay is classed as cell-based, Streptococcus pneumoniae. On the procedure:
as §1, §2

A further assay concerns MRSA. The assay is classed as cell-based, Methicillin-resistant Staphylococcus aureus. An outline of the steps: (§3)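 Minimum inhibitory concentration was determined separately for each organism, using media and growth conditions chosen for that organism.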
Another assay deals with S. mutans. The assay is classed as cell-based, Streptococcus mutans. On the procedure:
as §1, §2

A further assay concerns F. nucleatum. In kind it is cell-based, Fusobacterium nucleatum. Here is the method: as §1, §2
The subject of a further assay is P. gingivalis. In kind it is cell-based, Porphyromonas gingivalis. On the procedure: as §1, §2
Another assay relates to A. naeslundii. In kind it is cell-based, Actinomyces naeslundii. On the procedure: as §1, §2
Another assay deals with C. albicans. In kind it is cell-based, Candida albicans. Here is the method:
as §1, §2

Another assay has as its system T. rubrum. The assay is classed as cell-based, Trichophyton rubrum. On the procedure: as §1, §2
Another assay concerns P. aeruginosa. In kind it is cell-based, Pseudomonas aeruginosa. Here is the method: as §1, §2
For the next assay, the system named is B. subtilis. In kind it is cell-based, Bacillus subtilis. An outline of the steps: as §3
The next assay relates to C. jeikeium. In words: MIC assay, C. jeikeium. The assay is classed as cell-based, Corynebacterium jeikium. The conditions noted are these: TSB supplemented with 1% Tween-80, 37° C., aerobic, inoculum 10^6 CFU/ml, 18-24 h or 48 h. On the procedure: as §1, §2
Another assay has as its system M. furfur. In words: MIC assay, M. furfur. The conditions noted are these: ATCC medium 1072, 37° C., aerobic, inoculum 10^5 CFU/ml, 18-24 h or 48 h. In kind it is cell-based, Malassezia furfur. On the procedure:
as §1, §2

On to `CC[C@@H](C)[C@@H](NC(=O)[C@H](NC(=O)[C@@H](CO)NC(=O)CN)C(C)C)C(=O)N[C@H](CCCCN)C(=O)N[C@H](CCCCN)C(=O)N[C@H](CCCNC(=N)N)C(=O)N[C@H](CCCNC(=N)N)C(=O)N[C@H](CCCCN)C(=O)N[C@H](CCCNC(=N)N)C(=O)N[C@H](CCSC)C(=O)N[C@H](CO)C(=O)N[C@H](CCCCN)C(=O)N[C@H](CCCCN)C(=O)N[C@H](CCCCN)C(=O)N[C@H](Cc1c[nH]cn1)C(=O)N[C@H](CCCNC(=N)N)C(=O)N[C@H](CCCCN)C(=O)N[C@H](CCSC)C(=O)N[C@H](CC(C)C)C(=O)N[C@H](CCCNC(=N)N)C(=O)N[C@H](CCCNC(=N)N)C(=O)N[C@@H](C(=O)N[C@H](CCCNC(=N)N)C(=O)N[C@@H](C(=O)N[C@H](CCC(N)=O)C(=O)N[C@H](CCCNC(=N)N)C(=O)N[C@H](CCCNC(=N)N)C(=O)N[C@H](CCCCN)C(=O)N[C@H](CC(C)C)C(=O)NCC(=O)N[C@H](CCCCN)C(=O)O)C(C)C)[C@H](C)O` [PF-S028 D], for which, in the assay with M. furfur ATCC 14521, the M. furfur killed entry is “over 99%”.
Take `CC[C@H](C)[C@H](NC(=O)[C@H](CCCCN)NC(=O)CNC(=O)[C@H](CC(N)=O)NC(=O)[C@H](CCC(N)=O)NC(=O)[C@H](Cc1ccc(O)cc1)NC(=O)[C@H](C)NC(=O)[C@H](CCCCN)NC(=O)[C@H](C)NC(=O)[C@H](Cc1ccccc1)NC(=O)[C@H](CC(=O)O)NC(=O)[C@H](CCC(N)=O)NC(=O)[C@H](Cc1c[nH]cn1)NC(=O)[C@H](CO)NC(=O)[C@H](CC(N)=O)NC(=O)[C@H](Cc1ccccc1)NC(=O)[C@H](CO)NC(=O)[C@H](CC(C)C)NC(=O)[C@H](C)NC(=O)[C@@H](NC(=O)[C@H](CC(N)=O)NC(=O)[C@@H](NC(=O)[C@H](CCCCN)NC(=O)[C@H](CCCCN)NC(=O)[C@H](CCC(=O)O)NC(=O)[C@H](CCCCN)NC(=O)[C@H](CC(=O)O)NC(=O)[C@H](CC(C)C)NC(=O)[C@H](CCC(=O)O)NC(=O)[C@H](CCCCN)NC(=O)[C@H](CO)NC(=O)[C@H](C)NC(=O)[C@H](CC(N)=O)NC(=O)[C@H](CC(C)C)NC(=O)[C@@H](NC(=O)[C@H](CCCCN)NC(=O)[C@H](CO)NC(=O)[C@H](CCC(=O)O)NC(=O)[C@@H](N)Cc1ccccc1)[C@@H](C)CC)C(C)C)[C@@H](C)O)C(=O)O` [PF-606] (H-FESKILNASKELDKEKKVNTALSFNSHQDFAKAYQNGKI-OH; N-terminus and C-terminus assumed): the MIC with S. epidermidis, in the assay on E. coli, against S. pneumoniae, in the assay with MRSA and against S. mutans was 50 µM (≈ 222 µg/mL) in each case.
For the compound `CC[C@H](C)[C@H](NC(=O)[C@H](CCC(N)=O)NC(=O)[C@H](CCCCN)NC(=O)[C@H](CC(C)C)NC(=O)[C@H](CC(C)C)NC(=O)[C@@H]1CCCN1C(=O)[C@H](CCSC)NC(=O)[C@H](CC(C)C)NC(=O)[C@H](CO)NC(=O)[C@H](CCCCN)NC(=O)CNC(=O)[C@@H](N)CCCCN)C(=O)N[C@@H](CC(N)=O)C(=O)N[C@@H](CCC(N)=O)C(=O)N[C@@H](Cc1c[nH]c2ccccc12)C(=O)NCC(=O)N[C@@H](CCCCN)C(=O)N[C@@H](CC(C)C)C(=O)N[C@@H](Cc1ccc(O)cc1)C(=O)N[C@@H](CC(C)C)C(=O)O` [PF-C239] (H-KGKSLMPLLKQINQWGKLYL-OH; N-terminus and C-terminus assumed), the MIC turned out to be 50 µM (≈ 118 µg/mL) with F. nucleatum, 50 µM (≈ 118 µg/mL) in the assay on P. gingivalis, 25 µM (≈ 59 µg/mL) against A. naeslundii and 50 µM (≈ 118 µg/mL) in the assay with S. mutans.
Consider `CC[C@H](C)[C@H](NC(=O)[C@H](C)NC(=O)[C@H](CC(N)=O)NC(=O)[C@@H](NC(=O)[C@H](CC(C)C)NC(=O)[C@H](CCCNC(=N)N)NC(=O)[C@H](Cc1ccc(O)cc1)NC(=O)[C@@H](N)CC(N)=O)C(C)C)C(=O)N[C@@H](Cc1ccccc1)C(=O)N[C@@H](CO)C(=O)N[C@@H](CCCCN)C(=O)N[C@H](C(=O)N[C@@H](Cc1ccccc1)C(=O)N[C@@H](CCCCN)C(=O)N[C@@H](CCCCN)C(=O)N[C@@H](CCCCN)C(=O)N[C@@H](Cc1ccccc1)C(=O)N[C@H](C(=O)N[C@@H](CCCCN)C(=O)N[C@@H](Cc1ccccc1)C(=O)O)[C@@H](C)CC)[C@@H](C)CC` [PF-C252] (H-NYRLVNAIFSKIFKKKFIKF-OH; N-terminus and C-terminus assumed), for which the minimal inhibitory concentration (MIC) with F. nucleatum amounted to 25 µM (≈ 62.6 µg/mL); in the assay with P. gingivalis, 25 µM (≈ 62.6 µg/mL); against S. epidermidis, 25 µM (≈ 62.6 µg/mL); in the assay with C. albicans, 25 µM (≈ 62.6 µg/mL); with T. rubrum it was 50 µM (≈ 125 µg/mL); with A. naeslundii, 25 µM (≈ 62.6 µg/mL). The minimum inhibitory concentration (MIC) in the assay on MRSA stood at 50 µM (≈ 125 µg/mL); with P. aeruginosa, 50 µM (≈ 125 µg/mL); against S. mutans, 12.5 µM (≈ 31.3 µg/mL).
On to `CC[C@H](C)[C@H](NC(=O)[C@@H](NC(=O)[C@H](CO)NC(=O)CN)C(C)C)C(=O)N[C@@H](CCCCN)C(=O)N[C@@H](CCCCN)C(=O)N[C@@H](CCCNC(=N)N)C(=O)N[C@@H](CCCNC(=N)N)C(=O)N[C@@H](CCCCN)C(=O)N[C@@H](CCCNC(=N)N)C(=O)N[C@@H](CCSC)C(=O)N[C@@H](CO)C(=O)N[C@@H](CCCCN)C(=O)N[C@@H](CCCCN)C(=O)N[C@@H](CCCCN)C(=O)N[C@@H](Cc1c[nH]cn1)C(=O)N[C@@H](CCCNC(=N)N)C(=O)N[C@@H](CCCCN)C(=O)N[C@@H](CCSC)C(=O)N[C@@H](CC(C)C)C(=O)N[C@@H](CCCNC(=N)N)C(=O)N[C@@H](CCCNC(=N)N)C(=O)N[C@H](C(=O)N[C@@H](CCCNC(=N)N)C(=O)N[C@H](C(=O)N[C@@H](CCC(N)=O)C(=O)N[C@@H](CCCNC(=N)N)C(=O)N[C@@H](CCCNC(=N)N)C(=O)N[C@@H](CCCCN)C(=O)N[C@@H](CC(C)C)C(=O)NCC(=O)N[C@@H](CCCCN)C(=O)O)C(C)C)[C@@H](C)O` [PF-S028], for which the MIC with B. subtilis was 12.5 µM (≈ 50.4 µg/mL); in the assay with C. jeikeium it was 6.25 µM (≈ 25.2 µg/mL); in the assay on P. gingivalis (P. gingivalis, Columbia broth, 37° C., anaerobic, inoculum 10^5 CFU/ml, 18-24 h or 48 h) it was 25 µM (≈ 101 µg/mL); against S. epidermidis (S. epidermidis, BHI supplemented with 0.25% glucose, 37° C., aerobic, inoculum 10^5 CFU/ml, 18-24 h or 48 h), 25 µM (≈ 101 µg/mL); against M. furfur, 2.5 µM (≈ 10.1 µg/mL); against T. rubrum (T. rubrum, Potato Dextrose Agar, 25° C., aerobic, inoculum 10^5 CFU/ml, 18-24 h or 48 h) it was 50 µM (≈ 202 µg/mL). Besides, the MIC amounted to 50 µM (≈ 202 µg/mL) in the assay with MRSA (MRSA, BHI supplemented with 2% glucose, 37° C., aerobic, inoculum 10^5 CFU/ml, 18-24 h or 48 h); 50 µM (≈ 202 µg/mL) against P. aeruginosa (P. aeruginosa, MH, 37° C., aerobic, inoculum 10^5 CFU/ml, 18-24 h or 48 h); 50 µM (≈ 202 µg/mL) with S. mutans (S. mutans, TH supplemented with 1% sucrose, 37° C., anaerobic, inoculum 10^5 CFU/ml, 18-24 h or 48 h).
On to “TKKIELKRFVDAFVKKSYENYILERELKKLIKAINEELPTK [PF-600]”, for which the MIC in the assay on E. coli and against S. pneumoniae was 50 µM in each case.
Regarding `CC[C@H](C)[C@H](NC(=O)[C@@H](NC(=O)[C@H](CO)NC(=O)CN)C(C)C)C(=O)N[C@@H](CCCCN)C(=O)N[C@@H](CCCCN)C(=O)N[C@@H](CCCNC(=N)N)C(=O)N[C@@H](CCCNC(=N)N)C(=O)N[C@@H](CCCCN)C(=O)N[C@@H](CCCNC(=N)N)C(=O)N[C@@H](CCSC)C(=O)N[C@@H](CO)C(=O)N[C@@H](CCCCN)C(=O)N[C@@H](CCCCN)C(=O)N[C@@H](CCCCN)C(=O)N[C@@H](Cc1c[nH]cn1)C(=O)N[C@@H](CCCNC(=N)N)C(=O)N[C@@H](CCCCN)C(=O)N[C@@H](CCSC)C(=O)N[C@@H](CC(C)C)C(=O)N[C@@H](CCCNC(=N)N)C(=O)N[C@@H](CCCNC(=N)N)C(=O)N[C@H](C(=O)N[C@@H](CCCNC(=N)N)C(=O)N[C@H](C(=O)N[C@@H](CCC(N)=O)C(=O)N[C@@H](CCCNC(=N)N)C(=O)N[C@@H](CCCNC(=N)N)C(=O)N[C@@H](CCCCN)C(=O)N[C@@H](CC(C)C)C(=O)NCC(=O)N[C@@H](CCCCN)C(=O)O)C(C)C)[C@@H](C)O` [PF-S028 L], in the assay on M. furfur ATCC 14521, the M. furfur killed worked out at 39%.

Broadly, the MIC is the lowest concentration that inhibits growth of the organism.

Values taken from patent US20100184683A1, “ANTIBACTERIAL AND ANTIFUNGAL PEPTIDES” (C3 JIAN, INC., priority 2009, published 2010).
